Data from the supplement of paper PMC6045584.
± gives the standard deviation of the averaged measurements.

Key:
[1] = compound: O=C(c1cc(Cc2n[nH]c(=O)c3ccccc23)ccc1F)N1CCN(C(=O)C2CC2)CC1 [OLAPARIB]; assay: surviving fraction relative to DMSO-only wells; higher = less growth inhibition; details: exposure time: 5 days
Outline: (§1)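 Tumour cell lines were grown to log phase and seeded at 250–500 cells per well in 384-well plates. They were exposed continuously to inhibitors at 0.5, 1, 5, 10, 50, 100, 500 and 1000 nM for five days, beginning 24 hours after seeding. Surviving fraction is CellTiter-Glo luminescence normalised to the median of DMSO-only wells.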

[2] = compound: C[C@]12CC[C@H](O)CC1=CC[C@@H]1[C@@H]2CC[C@]2(C)C(c3cccnc3)=CC[C@@H]12 [ABIRATERONE]; assay: as above; details: exposure time: 5 days
Outline: as §1

Test System | surviving fraction ([1]; 0.5 nM) | surviving fraction ([1]; 1 nM) | surviving fraction ([1]; 5 nM) | surviving fraction ([1]; 10 nM) | surviving fraction ([1]; 50 nM) | surviving fraction ([1]; 100 nM) | surviving fraction ([1]; 500 nM) | surviving fraction ([1]; 1000 nM) | surviving fraction ([2]; 0.5 nM) | surviving fraction ([2]; 1 nM) | surviving fraction ([2]; 5 nM) | surviving fraction ([2]; 10 nM) | surviving fraction ([2]; 50 nM) | surviving fraction ([2]; 100 nM) | surviving fraction ([2]; 500 nM) | surviving fraction ([2]; 1000 nM)
MDAMB436 BREAST | 0.888 ± 0.1 | 0.878 ± 0.08 | 0.806 ± 0.056 | 0.795 ± 0.039 | 0.651 ± 0.011 | 0.606 ± 0.022 | 0.537 ± 0.022 | 0.469 ± 0.031 | 0.954 ± 0.13 | 0.934 ± 0.063 | 0.915 ± 0.083 | 0.93 ± 0.061 | 1.02 ± 0.049 | 0.895 ± 0.052 | 0.953 ± 0.035 | 0.894 ± 0.037
MDAMB453 BREAST | 0.989 ± 0.063 | 1 ± 0.036 | 0.989 ± 0.07 | 0.964 ± 0.059 | 0.966 ± 0.042 | 0.936 ± 0.018 | 1.03 ± 0.025 | 0.916 ± 0.025 | 1.05 ± 0.053 | 1.04 ± 0.13 | 1.15 ± 0.028 | 1.06 ± 0.072 | 1.09 ± 0.086 | 1.08 ± 0.0082 | 1.01 ± 0.029 | 1.006 ± 0.0072
MDAMB468 BREAST | 0.928 ± 0.045 | 0.907 ± 0.026 | 0.935 ± 0.025 | 0.942 ± 0.029 | 0.861 ± 0.031 | 0.849 ± 0.049 | 0.835 ± 0.04 | 0.595 ± 0.047 | 0.965 ± 0.013 | 1.04 ± 0.034 | 0.997 ± 0.079 | 1.07 ± 0.052 | 1.18 ± 0.13 | 1.12 ± 0.053 | 1.05 ± 0.11 | 0.961 ± 0.09
MFM223 BREAST | 1.13 ± 0.02 | 1.14 ± 0.1 | 1.13 ± 0.041 | 1.09 ± 0.085 | 0.87 ± 0.029 | 0.787 ± 0.037 | 0.748 ± 0.052 | 0.712 ± 0.025 | 1.19 ± 0.033 | 1.1 ± 0.08 | 1.17 ± 0.031 | 1.14 ± 0.099 | 1.22 ± 0.029 | 1.22 ± 0.015 | 1.2 ± 0.1 | 1.1 ± 0.1
MG63 BONE | 1.03 ± 0.034 | 1.061 ± 0.0049 | 1.06 ± 0.031 | 1.06 ± 0.033 | 1.023 ± 0.001 | 1.024 ± 0.01 | 0.939 ± 0.027 | 0.879 ± 0.019 | 1.09 ± 0.022 | 1.06 ± 0.038 | 1.11 ± 0.057 | 1.09 ± 0.042 | 1.09 ± 0.021 | 1.07 ± 0.045 | 1.05 ± 0.041 | 1.03 ± 0.017
MHM BONE | 1.001 ± 0.0057 | 1.02 ± 0.014 | 1.04 ± 0.022 | 1.02 ± 0.021 | 1.1 ± 0.018 | 1.052 ± 0.0081 | 1.04 ± 0.018 | 1.02 ± 0.028 | 1.03 ± 0.038 | 1.005 ± 0.0032 | 1.03 ± 0.027 | 1.05 ± 0.02 | 1.07 ± 0.024 | 1.05 ± 0.015 | 1.03 ± 0.018 | 1.05 ± 0.034
NCIH441 LUNG | 1.02 ± 0.14 | 1.11 ± 0.052 | 0.998 ± 0.034 | 1.06 ± 0.068 | 1.02 ± 0.042 | 0.98 ± 0.037 | 0.98 ± 0.064 | 1.01 ± 0.042 | 1.04 ± 0.067 | 1.02 ± 0.12 | 1.08 ± 0.14 | 1.01 ± 0.077 | 1.1 ± 0.065 | 1.05 ± 0.11 | 1.01 ± 0.046 | 0.948 ± 0.051
NOS1 BONE | 1.09 ± 0.13 | 0.985 ± 0.096 | 0.981 ± 0.063 | 0.999 ± 0.079 | 0.828 ± 0.062 | 0.773 ± 0.049 | 0.553 ± 0.065 | 0.521 ± 0.071 | 1.27 ± 0.16 | 1.05 ± 0.044 | 1.23 ± 0.089 | 1.22 ± 0.099 | 1.19 ± 0.15 | 1.24 ± 0.17 | 1.2 ± 0.095 | 0.999 ± 0.04
NY BONE | 1.01 ± 0.016 | 1.03 ± 0.013 | 1.05 ± 0.039 | 1.05 ± 0.061 | 1.09 ± 0.031 | 1.06 ± 0.055 | 0.95 ± 0.022 | 0.849 ± 0.04 | 1.05 ± 0.021 | 1.06 ± 0.029 | 1.08 ± 0.034 | 1.1 ± 0.059 | 1.105 ± 0.011 | 1.09 ± 0.032 | 1.08 ± 0.027 | 1.06 ± 0.028
OS25HAL BONE | 1.01 ± 0.015 | 1.01 ± 0.033 | 1.04 ± 0.015 | 1.02 ± 0.025 | 1.05 ± 0.019 | 1.01 ± 0.017 | 1.005 ± 0.0085 | 0.99 ± 0.012 | 1.02 ± 0.02 | 1.01 ± 0.011 | 1.039 ± 0.0055 | 0.989 ± 0.021 | 1.106 ± 0.0096 | 1.08 ± 0.017 | 1.07 ± 0.053 | 1.07 ± 0.034
OSHN BONE | 1.06 ± 0.021 | 1.05 ± 0.023 | 1.07 ± 0.032 | 1.04 ± 0.023 | 1.003 ± 0.01 | 0.984 ± 0.011 | 0.984 ± 0.017 | 0.917 ± 0.013 | 1.13 ± 0.021 | 1.102 ± 0.009 | 1.12 ± 0.022 | 1.09 ± 0.029 | 1.13 ± 0.016 | 1.13 ± 0.031 | 1.11 ± 0.017 | 1.09 ± 0.024
PCI30 HEADNECK | 0.973 ± 0.043 | 0.969 ± 0.12 | 1.03 ± 0.016 | 1.02 ± 0.095 | 0.98 ± 0.069 | 0.92 ± 0.052 | 0.856 ± 0.057 | 0.744 ± 0.05 | 1.12 ± 0.065 | 1.03 ± 0.091 | 1.11 ± 0.018 | 1.12 ± 0.068 | 1.18 ± 0.071 | 1.04 ± 0.013 | 1.04 ± 0.11 | 1.03 ± 0.065
RDES SOFT TISSUE | 1.16 ± 0.19 | 1.11 ± 0.23 | 1.14 ± 0.15 | 0.966 ± 0.14 | 0.85 ± 0.14 | 0.8 ± 0.093 | 1.01 ± 0.065 | 1.41 ± 0.088 | 1.19 ± 0.14 | 1.18 ± 0.12 | 1.21 ± 0.15 | 1.13 ± 0.11 | 1.2 ± 0.25 | 1.22 ± 0.25 | 1.28 ± 0.23 | 1.36 ± 0.27
S68 BREAST | 0.986 ± 0.17 | 0.927 ± 0.014 | 0.925 ± 0.23 | 0.896 ± 0.16 | 0.941 ± 0.084 | 0.771 ± 0.26 | 0.715 ± 0.15 | 0.612 ± 0.097 | 0.939 ± 0.22 | 0.785 ± 0.063 | 1.21 ± 0.21 | 0.925 ± 0.098 | 1.17 ± 0.021 | 1.17 ± 0.092 | 0.942 ± 0.15 | 0.878 ± 0.17
SAOS2 BONE | 1.078 ± 0.0052 | 1.02 ± 0.022 | 1.16 ± 0.072 | 1.07 ± 0.042 | 0.882 ± 0.021 | 0.8217 ± 0.0046 | 0.753 ± 0.013 | 0.692 ± 0.027 | 1.1 ± 0.015 | 1.16 ± 0.11 | 1.23 ± 0.041 | 1.16 ± 0.018 | 1.183 ± 0.0029 | 1.24 ± 0.04 | 1.204 ± 0.012 | 1.1 ± 0.017
SCC003 HEADNECK | 1.14 ± 0.066 | 1.03 ± 0.079 | 1.01 ± 0.072 | 1.09 ± 0.11 | 1.13 ± 0.052 | 1 ± 0.046 | 0.974 ± 0.12 | 0.881 ± 0.083 | 1.15 ± 0.044 | 1.11 ± 0.14 | 1.09 ± 0.08 | 1.14 ± 0.065 | 1.27 ± 0.084 | 1.13 ± 0.088 | 1.19 ± 0.042 | 1.1 ± 0.034
SCC36 HEADNECK | 1 ± 0.045 | 0.993 ± 0.12 | 1.06 ± 0.018 | 0.948 ± 0.12 | 0.837 ± 0.1 | 0.697 ± 0.027 | 0.705 ± 0.066 | 0.596 ± 0.066 | 1.04 ± 0.094 | 1.09 ± 0.022 | 1.24 ± 0.08 | 1.14 ± 0.072 | 1.15 ± 0.046 | 1.1 ± 0.15 | 1.02 ± 0.061 | 1.02 ± 0.034
SCC47 HEADNECK | 1.1 ± 0.09 | 0.994 ± 0.062 | 1.14 ± 0.042 | 1.07 ± 0.086 | 1.08 ± 0.098 | 0.989 ± 0.079 | 0.977 ± 0.043 | 1.03 ± 0.11 | 1.18 ± 0.061 | 1.11 ± 0.027 | 1.17 ± 0.061 | 1.19 ± 0.1 | 1.22 ± 0.13 | 1.36 ± 0.098 | 1.25 ± 0.093 | 1.17 ± 0.077
SCC90 HEADNECK | 1.07 ± 0.066 | 1.04 ± 0.093 | 1.06 ± 0.062 | 1.1 ± 0.063 | 0.994 ± 0.037 | 0.942 ± 0.14 | 0.968 ± 0.087 | 0.931 ± 0.091 | 1.26 ± 0.13 | 1.09 ± 0.15 | 1.25 ± 0.14 | 1.23 ± 0.18 | 1.21 ± 0.04 | 1.28 ± 0.1 | 1.23 ± 0.11 | 1.17 ± 0.062
